Measured values published in ChEMBL document CHEMBL1201862, “PubChem BioAssay data set” (2004).
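Exposure lasted 48 hours, with cells grown in 96-well plates and compounds tested at five concentrations. The concentration for 50% growth inhibition is given as GI50.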 The source made the active and inactive calls. Rule as the data show it: active = GI50 up to about 1.1 µM and inactive = higher.

How the values were obtained:
Test in all cases: NCI anticancer screen, dose series, 48 h
SF-539 = tested on: SF-539
CCRF-CEM = tested on: CCRF-CEM
SNB-78 = tested on: SNB-78
SN12C = tested on: SN12C
OVCAR-4 = tested on: OVCAR-4
SK-MEL-5 = tested on: SK-MEL-5
HOP-62 = tested on: HOP-62
HCT-116 = tested on: HCT-116
A498 = tested on: A498
A549 = tested on: A549
IGROV-1 = tested on: IGROV-1
SK-MEL-2 = tested on: SK-MEL-2
M14 = tested on: M14
NCI-H226 = tested on: NCI-H226
TK-10 = tested on: TK-10
NCI-H460 = tested on: NCI-H460
NCI-H23 = tested on: NCI-H23
MDA-N = tested on: MDA-N
MDA-MB-435 = tested on: MDA-MB-435
BT-549 = tested on: BT-549

Measured: GI50

CC(C)(C)c1ccccc1NS(=O)(=O)c1ccccc1
inactive: SF-539 > 100 µM | CCRF-CEM 62.1 µM | SNB-78 > 100 µM | SN12C 62.4 µM | OVCAR-4 62.4 µM | SK-MEL-5 42.4 µM | HOP-62 > 100 µM | HCT-116 48 µM | A498 > 100 µM | A549 59.8 µM | IGROV-1 > 100 µM | SK-MEL-2 > 100 µM | M14 96.2 µM | NCI-H226 21.9 µM | TK-10 > 100 µM | NCI-H460 92 µM | NCI-H23 > 100 µM

O=C1c2c(c3c4ccccc4[nH]c3c3[nH]c4ccccc4c23)C(=O)N1Cc1ccccc1
inactive: SF-539 2.37 µM | CCRF-CEM 2.96 µM | SNB-78 3.06 µM | SN12C 2.1 µM | OVCAR-4 3.06 µM | SK-MEL-5 1.85 µM | HOP-62 3.95 µM | HCT-116 2.74 µM | A549 3.48 µM | IGROV-1 4.09 µM | SK-MEL-2 3.2 µM | M14 3.31 µM | NCI-H226 2.1 µM | TK-10 4.25 µM | NCI-H460 3.3 µM | NCI-H23 2.08 µM

NS(=O)(=O)c1ccc(NC(=O)c2cccn3c(=O)c4ccccc4nc23)cc1
inactive: SF-539 > 100 µM | CCRF-CEM > 100 µM | SNB-78 > 100 µM | SN12C > 100 µM | OVCAR-4 > 100 µM | SK-MEL-5 > 100 µM | HOP-62 > 100 µM | HCT-116 > 100 µM | A498 > 100 µM | A549 > 100 µM | IGROV-1 > 100 µM | M14 > 100 µM | NCI-H226 > 100 µM | TK-10 > 100 µM | NCI-H460 > 100 µM | NCI-H23 > 100 µM

N=C(c1ccccc1)N1CCCCC1
inactive: SF-539 > 100 µM | SNB-78 > 100 µM | SN12C > 100 µM | OVCAR-4 > 100 µM | HOP-62 > 100 µM | HCT-116 > 100 µM | A549 > 100 µM | SK-MEL-2 > 100 µM | M14 > 100 µM | NCI-H226 > 100 µM | TK-10 > 100 µM | NCI-H460 > 100 µM | NCI-H23 > 100 µM

CCCCCC/C=C1\CCC(CN2CCCC2)C1=O (stereo not given)
inactive: SF-539 19 µM | CCRF-CEM 4.49 µM | SNB-78 26 µM | SN12C 12.9 µM | OVCAR-4 22.8 µM | SK-MEL-5 18.6 µM | HOP-62 18.7 µM | HCT-116 11.9 µM | A498 22.8 µM | A549 20.5 µM | IGROV-1 19.7 µM | SK-MEL-2 15.8 µM | M14 18.6 µM | NCI-H226 19.1 µM | TK-10 6.56 µM | NCI-H460 24.6 µM | NCI-H23 16.9 µM

N#CCCN(CCC#N)c1ccc(/C=C2\N=C(COc3ccc(Cl)cc3Cl)OC2=O)cc1
inactive: SF-539 > 100 µM | CCRF-CEM > 100 µM | SNB-78 > 100 µM | SN12C > 100 µM | OVCAR-4 > 100 µM | SK-MEL-5 > 100 µM | HOP-62 > 100 µM | HCT-116 > 100 µM | A498 > 100 µM | A549 > 100 µM | IGROV-1 > 100 µM | SK-MEL-2 > 100 µM | M14 > 100 µM | TK-10 > 100 µM | NCI-H460 > 100 µM | NCI-H23 > 100 µM

CC1(C)C2CCC13C(=O)C1OC3(C2)C2C(=O)N(c3ccccc3)C(=O)C12 (stereo not given)
inactive: SF-539 > 100 µM | CCRF-CEM > 100 µM | SNB-78 > 100 µM | SN12C > 100 µM | OVCAR-4 > 100 µM | SK-MEL-5 > 100 µM | HOP-62 > 100 µM | HCT-116 > 100 µM | A498 > 100 µM | A549 > 100 µM | IGROV-1 > 100 µM | SK-MEL-2 > 100 µM | M14 > 100 µM | NCI-H226 > 100 µM | TK-10 > 100 µM | NCI-H460 > 100 µM | NCI-H23 38.1 µM

C[C@@H]1C[C@]2(C[C@@H](C)C3[C@@H](CC4(C)[C@@H]5CCC6C(C)(C)OC(=O)C=C[C@]67C[C@@]5(CC[C@]34C)OO7)O2)OC1=O (stereo not given in full)
inactive: SF-539 35.8 µM | SNB-78 52.5 µM | SN12C > 100 µM | OVCAR-4 24.8 µM | SK-MEL-5 37.9 µM | HCT-116 61.5 µM | A549 > 100 µM | IGROV-1 56.2 µM | SK-MEL-2 50.4 µM | M14 48.1 µM | NCI-H226 24.8 µM | TK-10 52.1 µM | NCI-H460 86.7 µM | NCI-H23 > 100 µM

COc1ccc(O)cc1C=O
inactive: SF-539 > 100 µM | CCRF-CEM 44 µM | SNB-78 > 100 µM | SN12C > 100 µM | OVCAR-4 > 100 µM | SK-MEL-5 61 µM | HOP-62 > 100 µM | HCT-116 50 µM | A498 > 100 µM | A549 > 100 µM | IGROV-1 > 100 µM | M14 43.2 µM | TK-10 > 100 µM | NCI-H460 > 100 µM | NCI-H23 > 100 µM

O=C1[C@H]2ON(c3ccccc3)C(c3ccccc3Cl)[C@H]2C(=O)N1c1ccc(Cc2ccc(N3C(=O)[C@@H]4ON(c5ccccc5)C(c5ccccc5Cl)[C@@H]4C3=O)cc2)cc1 (stereo not given in full)
inactive: SF-539 > 100 µM | CCRF-CEM > 100 µM | SNB-78 > 100 µM | SN12C > 100 µM | OVCAR-4 > 100 µM | SK-MEL-5 71.3 µM | HOP-62 > 100 µM | HCT-116 > 100 µM | A498 > 100 µM | A549 > 100 µM | IGROV-1 > 100 µM | SK-MEL-2 > 100 µM | M14 21.7 µM | NCI-H226 > 100 µM | TK-10 > 100 µM | NCI-H460 > 100 µM | NCI-H23 > 100 µM

COC1=C(C)C(=O)c2c(cc3c(c2O)C(C)(CCC=C(C)C)C(C)O3)C1=O (stereo not given)
inactive: SF-539 > 100 µM | CCRF-CEM > 100 µM | SNB-78 > 100 µM | SN12C 33.5 µM | OVCAR-4 > 100 µM | SK-MEL-5 13.4 µM | HOP-62 18.2 µM | HCT-116 > 100 µM | A498 16.3 µM | A549 20 µM | IGROV-1 > 100 µM | SK-MEL-2 30.2 µM | M14 23.4 µM | NCI-H226 17.6 µM | TK-10 > 100 µM | NCI-H460 14.1 µM | NCI-H23 9.71 µM

C/C=C(/CCC1NCCC2c3ccccc3NC12)[Si](C)(C)C (stereo not given)
inactive: SF-539 15.8 µM | CCRF-CEM 3.6 µM | SNB-78 11.6 µM | SN12C 11.7 µM | OVCAR-4 7.57 µM | SK-MEL-5 12.8 µM | HOP-62 15.2 µM | HCT-116 3.52 µM | A549 14.6 µM | IGROV-1 12.8 µM | SK-MEL-2 13.8 µM | M14 3.66 µM | NCI-H226 13.3 µM | TK-10 15 µM | NCI-H460 3.3 µM | NCI-H23 13.8 µM

COC(=O)CC[C@]12C[C@]13CC[C@]1(C)C4C(C)C[C@]5(CC(C)C(=O)O5)OC4CC1(C)C3CCC2C(C)(C)O (stereo not given in full)
inactive: SF-539 50.6 µM | SNB-78 89.9 µM | SN12C 61.5 µM | OVCAR-4 95.9 µM | SK-MEL-5 35.6 µM | HOP-62 45.6 µM | HCT-116 85.7 µM | A498 > 100 µM | A549 > 100 µM | IGROV-1 65.6 µM | SK-MEL-2 26.7 µM | M14 > 100 µM | TK-10 > 100 µM | NCI-H460 68.7 µM | NCI-H23 97.3 µM

N#CSc1ccc(S(N)(=O)=O)cc1
inactive: SF-539 25.1 µM | CCRF-CEM 8.07 µM | SN12C > 100 µM | OVCAR-4 30.3 µM | SK-MEL-5 75.2 µM | HOP-62 > 100 µM | HCT-116 44.5 µM | A498 > 100 µM | A549 > 100 µM | IGROV-1 49.7 µM | MDA-N 33.2 µM | SK-MEL-2 46.5 µM | M14 21.6 µM | NCI-H226 > 100 µM | TK-10 75.5 µM | MDA-MB-435 33.3 µM | BT-549 > 100 µM | NCI-H460 > 100 µM | NCI-H23 > 100 µM

O=C(NC1=NC2C=CC([N+](=O)[O-])=CC2S1)C(=O)Nn1c(S)nc2ccccc2c1=O (stereo not given)
inactive: SF-539 > 100 µM | CCRF-CEM 45.9 µM | SN12C > 100 µM | OVCAR-4 27.4 µM | SK-MEL-5 88.1 µM | HOP-62 > 100 µM | HCT-116 79.3 µM | A498 30.4 µM | A549 > 100 µM | IGROV-1 21 µM | MDA-N > 100 µM | SK-MEL-2 > 100 µM | M14 > 100 µM | NCI-H226 18.8 µM | TK-10 63 µM | MDA-MB-435 > 100 µM | BT-549 65.8 µM | NCI-H460 80.5 µM | NCI-H23 40.7 µM

O=C(CCN1CCCCC1CCO)Nc1ccc2c(c1)C(=O)c1ccc(NC(=O)CCN3CCCCC3CCO)cc1C2=O (stereo not given)
inactive: SF-539 2.1 µM | CCRF-CEM 2.62 µM | SNB-78 3.2 µM | SN12C 3.67 µM | OVCAR-4 12.4 µM | SK-MEL-5 9.4 µM | HOP-62 4.35 µM | HCT-116 4.11 µM | A498 1.86 µM | A549 16.7 µM | IGROV-1 4.9 µM | SK-MEL-2 2.49 µM | NCI-H226 5.71 µM | TK-10 3.1 µM | NCI-H460 3.6 µM | NCI-H23 15 µM
